In PMC11973503 (2024):

What was measured:
[1] = system: Seq 5 dsDNA (DNA, duplex) GCGCCCGC/GCGGGCGC; assay: thermal melting; details: 100 mM KCl; 10 mM HEPES, 0.4 mM EDTA; 5 μM duplex, ligand 1:10 per base pair; Tm without ligand 54±0.7
[2] = system: Seq 6 dsDNA (5'-CTTCGATAGTG) (DNA, duplex) CTTCGATAGTG/CACTATCGAAG; assay: fluorescence quantum yield titration; details: 100 mM KCl; 10 mM HEPES pH 7, 0.4 mM EDTA, 25 °C
[3] = system: Poly dA ⋅ Poly dT (DNA, polymer) A/T; assay: thermal melting; details: 100 mM KCl; 10 mM HEPES, 0.4 mM EDTA; 5 μM duplex, ligand 1:10 per base pair; Tm without ligand 72±1.0
[4] = system: HTG DNA (DNA, G4) AGGGTTAGGGTTAGGGTTAGGG; assay: thermal melting; details: 100 mM KCl; 10 mM HEPES, 0.4 mM EDTA; ligand to HTG 2.2:1; Tm without ligand 57±1.9
[5] = system: Seq 6 dsDNA (DNA, duplex) CTTCGATAGTG/CACTATCGAAG; assay: thermal melting; details: 100 mM KCl; 10 mM HEPES, 0.4 mM EDTA; 5 μM duplex, ligand 1:10 per base pair; Tm without ligand 45±1.1
[6] = system: Poly rA ⋅ Poly rU (RNA, polymer) A/U; assay: thermal melting; details: 100 mM KCl; 10 mM HEPES, 0.4 mM EDTA; 5 μM duplex, ligand 1:10 per base pair; Tm without ligand 58±0.4
[7] = system: HTG DNA (human telomeric G-quadruplex), d[AG3(T2AG3)3] (DNA, G4) AGGGTTAGGGTTAGGGTTAGGG; assay: thermal melting; details: 100 mM KCl; derived from two Tm; 10 mM HEPES, 0.4 mM EDTA; 5 µM DNA; ligand to HTG 2.2:1
[8] = system: Seq 6 dsDNA (5'-CTTCGATAGTG) (DNA, duplex) CTTCGATAGTG/CACTATCGAAG; assay: thermal melting; details: 100 mM KCl; derived from two Tm; 10 mM HEPES, 0.4 mM EDTA; ligand 1:10 per base pair
[9] = system: Seq 3 (GGGGCGGG)2 (DNA, duplex) GGGGCGGG/CCCGCCCC; assay: fluorescence increase (ΔF), plate reader; details: 50 mM NaCl; 10 mM sodium cacodylate, 0.5 mM EDTA, pH 6.0; 1 µM duplex, 1:1 ligand
[10] = system: Poly dA ⋅ Poly dT (DNA, polymer) A/T; assay: thermal melting; details: 100 mM KCl, derived from two Tm, 10 mM HEPES, 0.4 mM EDTA, ligand 1:10 per base pair
[11] = system: Seq 1 (GGGGCCCC)2 (DNA, duplex) GGGGCCCC; assay: fluorescence increase (ΔF), plate reader; details: 50 mM NaCl; 10 mM sodium cacodylate, 0.5 mM EDTA, pH 6.0; 1 µM duplex, 1:1 ligand
[12] = system: Poly rA ⋅ Poly rU (RNA, polymer) A/U; assay: thermal melting; details: 100 mM KCl, derived from two Tm, 10 mM HEPES, 0.4 mM EDTA, ligand 1:10 per base pair
[13] = system: Seq 5 dsRNA (RNA, duplex) GCGCCCGC/GCGGGCGC; assay: thermal melting; details: 100 mM KCl; 10 mM HEPES pH not given, 0.4 mM EDTA; 5 µM duplex; ligand 1:10 per base pair
[14] = system: Seq 2 (CCCCGGGG)2 (DNA, duplex) CCCCGGGG; assay: fluorescence increase (ΔF), plate reader; details: 50 mM NaCl; 10 mM sodium cacodylate, 0.5 mM EDTA, pH 6.0; 1 µM duplex, 1:1 ligand
[15] = system: Seq 4 (GCGGGGGC)2 (DNA, duplex) GCGGGGGC/GCCCCCGC; assay: fluorescence increase (ΔF), plate reader; details: 50 mM NaCl; 10 mM sodium cacodylate, 0.5 mM EDTA, pH 6.0; 1 µM duplex, 1:1 ligand
[16] = system: Seq 5 dsDNA (5'-GCGCCCGC) (DNA, duplex) GCGCCCGC/GCGGGCGC; assay: thermal melting; details: 100 mM KCl; 10 mM HEPES pH not given, 0.4 mM EDTA; 5 µM duplex; ligand 1:10 per base pair

Row | Tm [1] | binding [2] | Tm [3] | Tm [4] | Tm [5] | Tm [6] | ΔTm [7] | ΔTm [8] | binding [9] | ΔTm [10] | binding [11] | ΔTm [12] | Tm increase [13] | binding [14] | binding [15] | Tm increase [16] | SMILES
1 | 54±1.6 °C | yes | 73±0.3 °C | 61±1.2 °C | 52±1.0 °C | 58±1.1 °C | – | – | – | – | – | – | – | – | – | – | CN1C(=Cc2cc[n+](C)c3ccccc23)Sc2ccccc21
2 | – | – | – | – | – | – | 10 °C | 13 °C | yes | 1 °C | yes | 21 °C | 11 °C | yes | yes | 10.8 °C | CN1C(=Cc2cc[n+](CCCCC(=O)NCCSC[C@H]3O[C@@H](O[C@@H]4[C@@H](O)[C@H](N)C[C@H](N)[C@H]4O[C@H]4O[C@H](CN)[C@@H](O)[C@H](O)[C@H]4N)[C@H](O)[C@@H]3O[C@H]3O[C@@H](CN)[C@@H](O)[C@H](O)[C@H]3N)c3ccccc23)Sc2ccccc21
3 | – | – | – | – | – | – | 8 °C | 9 °C | yes | 0 °C | yes | 13 °C | 9.7 °C | yes | yes | 13.8 °C | CN1C(=Cc2cc[n+](CCCCC(=O)NC[C@H]3O[C@@H](O[C@@H]4[C@@H](O)[C@H](N)C[C@H](N)[C@H]4O[C@H]4O[C@H](CN)[C@@H](O)[C@H](O)[C@H]4N)[C@H](O)[C@@H]3O[C@H]3O[C@@H](CN)[C@@H](O)[C@H](O)[C@H]3N)c3ccccc23)Sc2ccccc21
